The source of these data is ChEMBL document CHEMBL1139293 (Bioorg Med Chem Lett, 2009).

By Ki is commonly meant a measure of affinity in units of concentration, obtained from inhibition or displacement. A higher Ki goes with lower affinity. One may read the pKi as the Ki on a negative log10 scale, so that one unit is a factor of ten. Low readings indicate a large Ki, high ones a small Ki.

The source made the active and inactive calls. No cut-off for these calls is given here.

Chain of Neuronal acetylcholine receptor subunit alpha-7 (P36544 23-502 limits assumed): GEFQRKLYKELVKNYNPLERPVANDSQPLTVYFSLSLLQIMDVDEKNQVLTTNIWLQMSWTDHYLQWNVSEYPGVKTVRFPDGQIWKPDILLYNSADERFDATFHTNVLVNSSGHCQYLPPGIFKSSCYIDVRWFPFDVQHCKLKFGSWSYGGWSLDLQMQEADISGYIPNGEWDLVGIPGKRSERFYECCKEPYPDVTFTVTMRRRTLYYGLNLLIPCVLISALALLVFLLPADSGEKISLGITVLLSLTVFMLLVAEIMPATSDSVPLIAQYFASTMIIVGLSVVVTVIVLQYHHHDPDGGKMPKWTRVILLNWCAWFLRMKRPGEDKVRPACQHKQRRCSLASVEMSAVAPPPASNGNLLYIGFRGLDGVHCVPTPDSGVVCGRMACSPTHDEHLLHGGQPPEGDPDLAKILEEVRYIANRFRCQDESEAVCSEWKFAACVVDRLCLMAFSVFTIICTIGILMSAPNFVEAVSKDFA

The target in the first test is T1, Neuronal acetylcholine receptor; alpha3/beta4 (Homo sapiens, UniProt P30926+P32297). The test is described as follows: Agonist activity at alpha3beta4 nAChR expressed in HEK293 cells by FLIPR membrane potential assay. The settings on record: read-out: EC50. It is filed as functional, cell-based.
T1 sequence (P30926 whole entry): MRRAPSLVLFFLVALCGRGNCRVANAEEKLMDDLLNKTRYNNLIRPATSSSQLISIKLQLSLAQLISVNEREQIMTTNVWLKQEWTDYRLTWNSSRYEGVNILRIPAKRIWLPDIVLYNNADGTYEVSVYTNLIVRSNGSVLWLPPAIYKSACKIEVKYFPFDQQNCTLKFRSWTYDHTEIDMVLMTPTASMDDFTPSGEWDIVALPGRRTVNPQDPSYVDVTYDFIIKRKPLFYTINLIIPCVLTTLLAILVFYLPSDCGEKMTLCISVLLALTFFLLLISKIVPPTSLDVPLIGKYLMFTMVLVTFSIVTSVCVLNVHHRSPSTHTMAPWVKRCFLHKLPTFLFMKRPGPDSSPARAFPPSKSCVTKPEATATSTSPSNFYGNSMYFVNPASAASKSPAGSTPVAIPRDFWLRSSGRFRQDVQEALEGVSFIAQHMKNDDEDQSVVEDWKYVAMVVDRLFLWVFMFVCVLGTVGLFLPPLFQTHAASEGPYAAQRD
T1 sequence (P32297 whole entry): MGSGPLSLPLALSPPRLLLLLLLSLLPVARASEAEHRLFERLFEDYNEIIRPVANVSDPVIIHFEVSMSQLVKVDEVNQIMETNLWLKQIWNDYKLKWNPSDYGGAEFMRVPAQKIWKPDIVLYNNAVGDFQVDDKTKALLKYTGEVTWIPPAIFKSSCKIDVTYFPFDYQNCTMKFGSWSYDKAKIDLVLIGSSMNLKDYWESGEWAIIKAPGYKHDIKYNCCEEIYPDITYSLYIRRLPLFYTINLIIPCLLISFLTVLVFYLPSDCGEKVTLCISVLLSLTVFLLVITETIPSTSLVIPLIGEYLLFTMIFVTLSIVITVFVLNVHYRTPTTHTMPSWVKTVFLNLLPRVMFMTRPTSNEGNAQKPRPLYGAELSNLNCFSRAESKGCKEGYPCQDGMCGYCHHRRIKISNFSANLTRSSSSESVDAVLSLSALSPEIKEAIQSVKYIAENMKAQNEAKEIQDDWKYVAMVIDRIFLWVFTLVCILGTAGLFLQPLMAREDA
In the case of `CC(CCOC(=O)N(C)CCO)N(C)C` (stereo not given), the EC50 was found to be 160 µM.

With `CC(CCNC(=O)N(C)C)N(C)C` (stereo not given), the EC50 was greater than 3000 µM.

For the molecule `CCNC(=O)OCCC(C)N(C)C` (stereo not given), the EC50 amounted to 55 µM.

With `CN(C)C(=O)OCCC(CO)N(C)C` (stereo not given), the EC50 is greater than 3000 µM.

`CC(CCOC(=O)NCCO)N(C)C` (stereo not given): the EC50 stood at 300 µM.

Regarding `CC(CCOC(=S)N(C)C)N(C)C` (stereo not given), the EC50 was 53 µM.

Take `CC(CCOC(=O)N(C)c1ccc(Cl)cc1)N(C)C` (stereo not given): the EC50 was 28 µM.

As for `CCCNC(=O)OCCC(C)N(C)C` (stereo not given), the EC50 worked out at 95 µM.

`CC(C/C=C/C(=O)N(C)C)N(C)C` (stereo not given): the EC50 was 91 µM.

On to `CC(CCOC(=O)N(C)Cc1ccccc1)N(C)C` (stereo not given), for which the EC50 worked out at 6.7 µM.

For the molecule `CC(CCCC(=O)N(C)C)N(C)C` (stereo not given), the EC50 was determined as 1000 µM.

In the case of `CC(CCNC(=O)Nc1ccccc1)N(C)C` (stereo not given), the EC50 is greater than 3000 µM.

`CC(CCOC(=O)NCCCc1ccccc1)N(C)C` (stereo not given): the EC50 was greater than 1000 µM.

Regarding `CC(CCOC(=O)N(C)c1ccccc1)N(C)C` (stereo not given), the EC50 turned out to be 51 µM.

Take `CN(C)C(=O)OCCC(c1ccccc1)N(C)C` (stereo not given): the EC50 was greater than 1000 µM.

For the molecule `CC(CCSC(=O)N(C)C)N(C)C` (stereo not given), the EC50 came to 430 µM.

As for `CC(CCOC(=O)N(C)c1ccc(C#N)cc1)N(C)C` (stereo not given), the EC50 is greater than 1000 µM.

For `CC(CCOC(N)=O)N(C)C` (stereo not given), the EC50 turned out to be 57 µM.

For `CN(C)C(=O)OCCC(c1ccsc1)N(C)C` (stereo not given), the EC50 is greater than 1000 µM.

With `CNC(=O)/C=C/CC(C)N(C)C` (stereo not given), the EC50 was found to be 150 µM.

The same test, now with this note: read-out: pEC50 (converted).
For the molecule `CC(CCOC(=O)N(C)c1ccc(Cl)cc1)N(C)C` (stereo not given), the EC50 was 31.6 µM.

`CC(CCOC(=O)NCCCc1ccccc1)N(C)C` (stereo not given): the EC50 was 1000 µM.

Consider `CN(C)C(=O)OCCC(c1ccccc1)N(C)C` (stereo not given), for which the EC50 was 1000 µM.

As to `CC(CCOC(=O)N(C)c1ccc(C#N)cc1)N(C)C` (stereo not given), the EC50 was 1000 µM.

`CN(C)C(=O)OCCC(c1ccsc1)N(C)C` (stereo not given): the EC50 was 1000 µM.

The next test has as its target Neuronal acetylcholine receptor subunit alpha-7 (Homo sapiens, UniProt P36544). Kind of test: Displacement of [3H]MLA from alpha7 nAChR/5HT3A receptor expressed in HEK293 cells. It counts as cell-based.
Details: not given
A general note: In a radioligand displacement assay an active substance lowers the binding of a labelled ligand.
Consider `CC(CCOC(=O)N(C)CCO)N(C)C` (stereo not given), for which the Ki is greater than 1000 µM.

The molecule `CC(CCNC(=O)N(C)C)N(C)C` (stereo not given) gave a Ki greater than 1000 µM.

For `CCNC(=O)OCCC(C)N(C)C` (stereo not given), the Ki is greater than 1000 µM.

The molecule `CN(C)C(=O)OCCC(CO)N(C)C` (stereo not given) registered a Ki greater than 1000 µM.

Molecule `CC(CCOC(=O)NCCO)N(C)C` (stereo not given) showed a Ki greater than 1000 µM.

`CC(CCOC(=S)N(C)C)N(C)C` (stereo not given): the Ki is greater than 1000 µM.

For the molecule `CC(CCOC(=O)N(C)c1ccc(Cl)cc1)N(C)C` (stereo not given), the Ki worked out at 1000 µM and the pKi is recorded as 3.

As for `CCCNC(=O)OCCC(C)N(C)C` (stereo not given), the Ki was greater than 1000 µM.

In the case of `CC(C/C=C/C(=O)N(C)C)N(C)C` (stereo not given), the Ki was greater than 1000 µM.

On to `CC(CCOC(=O)N(C)Cc1ccccc1)N(C)C` (stereo not given), for which the affinity corresponds to a Ki of 1000 µM and the pKi was found to be 3.

As for `CC(CCCC(=O)N(C)C)N(C)C` (stereo not given), the Ki is greater than 1000 µM.

Take `CC(CCNC(=O)Nc1ccccc1)N(C)C` (stereo not given): the Ki is greater than 1000 µM.

The molecule `CC(CCOC(=O)NCCCc1ccccc1)N(C)C` (stereo not given) showed a Ki greater than 1000 µM.

In turn, `CC(CCOC(=O)N(C)c1ccccc1)N(C)C` (stereo not given) yielded a Ki of 1000 µM and a pKi of 3.

Regarding `CN(C)C(=O)OCCC(c1ccccc1)N(C)C` (stereo not given), the Ki came to 1000 µM and the pKi is listed as 3.

For the molecule `CC(CCSC(=O)N(C)C)N(C)C` (stereo not given), the Ki is greater than 1000 µM.

As for `CC(CCOC(=O)N(C)c1ccc(C#N)cc1)N(C)C` (stereo not given), the affinity corresponds to a Ki of 1000 µM and the pKi is reported as 3.

`CC(CCOC(N)=O)N(C)C` (stereo not given) yielded an inhibition constant (Ki) greater than 1000 µM.

The molecule `CN(C)C(=O)OCCC(c1ccsc1)N(C)C` (stereo not given) returned a Ki of 1000 µM and a pKi of 3.

Turning to `CNC(=O)/C=C/CC(C)N(C)C` (stereo not given), the inhibition constant Ki was greater than 1000 µM.

In another test the target is T1, Neuronal acetylcholine receptor; alpha3/beta4. The test is described as follows: Agonist activity at alpha3beta4 nAChR expressed in HEK293 cells at 300 uM by FLIPR membrane potential assay. It counts as functional, cell-based.
Details: not given
Consider `CN(C)C(=O)OCCC(CO)N(C)C` (stereo not given), for which the outcome was Active.

Regarding `CC(CCCC(=O)N(C)C)N(C)C` (stereo not given), the outcome was Active.

With `CC(CCOC(=O)NCCCc1ccccc1)N(C)C` (stereo not given), the outcome was Active.

For the molecule `CN(C)C(=O)OCCC(c1ccccc1)N(C)C` (stereo not given), the outcome was Active.

For `CC(CCOC(=O)N(C)c1ccc(C#N)cc1)N(C)C` (stereo not given), the result was Active.

Turning to `CN(C)C(=O)OCCC(c1ccsc1)N(C)C` (stereo not given), the result was Active.

A further test has the same target. The test is described as follows: Agonist activity at alpha3beta4 nAChR expressed in HEK293 cells at 1 mM by FLIPR membrane potential assay. It is filed as functional, cell-based.
Details: not given
For the molecule `CC(CCNC(=O)N(C)C)N(C)C` (stereo not given), the result was Active.

Take `CN(C)C(=O)OCCC(CO)N(C)C` (stereo not given): the result was Active.

Turning to `CC(CCNC(=O)Nc1ccccc1)N(C)C` (stereo not given), the result was Active.
